The molecules below were run on HCV Huh-luc/neo-ET replicon cells (assay: Luciferase-Based HCV Replicon Assay (EC50 (1b))). Conditions: Hepatitis C virus, 72 hours exposure, luciferase activity.
Type: cell-based
Procedure, shortened: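 Replicon cells seeded, then exposed 24 h later to a compound concentration series in triplicate for 72 h. Luciferase luminescence read; % inhibition vs no-compound control, with 100 nM BILN-2061 as background, used to derive EC50 (1b).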
Molecule CS(=O)(=O)NCc1csc2c1S(=O)(=O)N=C(C1=C(O)[C@@H]3[C@@H]4CC[C@@H](C4)[C@@H]3N(C3CCCCC3)C1=O)N2 [Example 98, N-[3-((1S,2S,7R,8R)-3-Cyclohexyl-6-hydroxy-4-oxo-3-aza-tricyclo[6.2.1.0^2,7]undec-5-en-5-yl)-1,1-dioxo-1,4-dihydro-1λ^6-thieno[2,3-e][1,2,4]thiadiazin-7-ylmethyl]-methanesulfonamide] has an EC50 of 100 to 1000 nM. CS(=O)(=O)NCc1csc2c1S(=O)(=O)N=C(C1=C(O)[C@@H]3CCC[C@@H]3N(C3CCCCC3)C1=O)N2 [Example 99, (4aR,7aS)-N-[3-(1-Cyclohexyl-4-hydroxy-2-oxo-2,4a,5,6,7,7a-hexahydro-1H-[1]pyrindin-3-yl)-1,1-dioxo-1,4-dihydro-1λ^6-thieno[2,3-e][1,2,4]thiadiazin-7-ylmethyl]-methanesulfonamide] was tested, and the EC50 was 100 to 1000 nM. With CS(=O)(=O)NCc1csc2c1S(=O)(=O)N=C(C1=C(O)[C@@H]3[C@H]4CC[C@H](C4)[C@@H]3N(CC3CCCCC3)C1=O)N2 [Example 101, N-[3-((1R,2S,7R,8S)-3-Cyclohexylmethyl-6-hydroxy-4-oxo-3-aza-tricyclo[6.2.1.0^2,7]undec-5-en-5-yl)-1,1-dioxo-1,4-dihydro-1λ^6-thieno[2,3-e][1,2,4]thiadiazin-7-ylmethyl]-methanesulfonamide] the EC50 was 20 to 100 nM. With CS(=O)(=O)NCc1csc2c1S(=O)(=O)N=C(C1=C(O)[C@@H]3[C@@H]4CC[C@@H](C4)[C@@H]3N(CC3CCCCC3)C1=O)N2 [Example 102, N-[3-((1S,2S,7R,8R)-3-Cyclohexylmethyl-6-hydroxy-4-oxo-3-aza-tricyclo[6.2.1.0^2,7]undec-5-en-5-yl)-1,1-dioxo-1,4-dihydro-1λ^6-thieno[2,3-e][1,2,4]thiadiazin-7-ylmethyl]-methanesulfonamide] the EC50 was 20 to 100 nM. Molecule CS(=O)(=O)NCc1csc2c1S(=O)(=O)N=C(C1=C(O)[C@@H]3CCC[C@@H]3N(CC3CCCCC3)C1=O)N2 [Example 103, (4aR,7aS)-N-[3-(1-Cyclohexylmethyl-4-hydroxy-2-oxo-2,4a,5,6,7,7a-hexahydro-1H-[1]pyrindin-3-yl)-1,1-dioxo-1,4-dihydro-1λ^6-thieno[2,3-e][1,2,4]thiadiazin-7-ylmethyl]-methanesulfonamide] has an EC50 of 20 to 100 nM. With CS(=O)(=O)NCc1csc2c1S(=O)(=O)N=C(C1=C(O)[C@@H]3[C@H]4CC[C@H](C4)[C@@H]3N(CCC3CC3)C1=O)N2 [Example 106, N-{3-[(1R,2S,7R,8S)-3-(2-Cyclopropyl-ethyl)-6-hydroxy-4-oxo-3-aza-tricyclo[6.2.1.0^2,7]undec-5-en-5-yl]-1,1-dioxo-1,4-dihydro-1λ^6-thieno[2,3-e][1,2,4]thiadiazin-7-ylmethyl}-methanesulfonamide] the EC50 was 5 to 20 nM. CS(=O)(=O)NCc1csc2c1S(=O)(=O)N=C(C1=C(O)[C@@H]3[C@@H]4CC[C@@H](C4)[C@@H]3N(CCC3CC3)C1=O)N2 [Example 107, N-{3-[(1S,2S,7R,8R)-3-(2-Cyclopropyl-ethyl)-6-hydroxy-4-oxo-3-aza-tricyclo[6.2.1.0^2,7]undec-5-en-5-yl]-1,1-dioxo-1,4-dihydro-1λ^6-thieno[2,3-e][1,2,4]thiadiazin-7-ylmethyl}-methanesulfonamide] gave an EC50 of 20 to 100 nM. CS(=O)(=O)NCc1csc2c1S(=O)(=O)N=C(C1=C(O)C3C4CCC(CC4)C3N(CCC3CC3)C1=O)N2 (stereo not drawn) [Example 108, N-{3-[3-(2-Cyclopropyl-ethyl)-6-hydroxy-4-oxo-3-aza-tricyclo[6.2.2.0^2,7]dodec-5-en-5-yl]-1,1-dioxo-1,4-dihydro-1λ^6-thieno[2,3-e][1,2,4]thiadiazin-7-ylmethyl}-methanesulfonamide] showed an EC50 of 5 to 20 nM. With CC1(CCN2C(=O)C(C3=NS(=O)(=O)c4c(CNS(C)(=O)=O)csc4N3)=C(O)C3C4CCC(CC4)C32)CC1 (stereo not drawn) [Example 109, N-(3-{6-Hydroxy-3-[2-(1-methyl-cyclopropyl)-ethyl]-4-oxo-3-aza-tricyclo[6.2.2.0^2,7]dodec-5-en-5-yl]-1,1-dioxo-1,4-dihydro-1λ^6-thieno[2,3-e][1,2,4]thiadiazin-7-ylmethyl)-methanesulfonamide] the EC50 was 5 to 20 nM. In the case of CS(=O)(=O)NCc1csc2c1S(=O)(=O)N=C(C1=C(O)[C@@H]3CCC[C@@H]3N(Cc3ccc(F)cc3)C1=O)N2 [Example 110, (4aR,7aS)-N-{3-[1-(4-Fluoro-benzyl)-4-hydroxy-2-oxo-2,4a,5,6,7,7a-hexahydro-1H-[1]pyrindin-3-yl]-1,1-dioxo-1,4-dihydro-1λ^6-thieno[2,3-e][1,2,4]thiadiazin-7-ylmethyl}-methanesulfonamide], the EC50 is reported as 5 to 20 nM. Work on CS(=O)(=O)NCc1csc2c1S(=O)(=O)N=C(C1=C(O)[C@@H]3CCC[C@@H]3N(Cc3ccc(F)cc3Cl)C1=O)N2 [Example 111, (4aR,7aS)-N-{3-[1-(2-Chloro-4-fluoro-benzyl)-4-hydroxy-2-oxo-2,4a,5,6,7,7a-hexahydro-1H-[1]pyrindin-3-yl]-1,1-dioxo-1,4-dihydro-1λ^6-thieno[2,3-e][1,2,4]thiadiazin-7-ylmethyl}-methanesulfonamide] yielded an EC50 of 100 to 1000 nM. In the case of CS(=O)(=O)NCc1csc2c1S(=O)(=O)N=C(C1=C(O)[C@@H]3CCC[C@@H]3N(Cc3ccc(F)cc3F)C1=O)N2 [Example 112, (4aR,7aS)-N-{3-[1-(2,4-Difluoro-benzyl)-4-hydroxy-2-oxo-2,4a,5,6,7,7a-hexahydro-1H-[1]pyrindin-3-yl]-1,1-dioxo-1,4-dihydro-1λ^6-thieno[2,3-e][1,2,4]thiadiazin-7-ylmethyl}-methanesulfonamide], the EC50 is reported as 20 to 100 nM. Molecule CS(=O)(=O)NCc1csc2c1S(=O)(=O)N=C(C1=C(O)[C@@H]3CCC[C@@H]3N(Cc3ccc(F)c(Cl)c3)C1=O)N2 [Example 113, (4aR,7aS)-N-{3-[1-(3-Chloro-4-fluoro-benzyl)-4-hydroxy-2-oxo-2,4a,5,6,7,7a-hexahydro-1H-[1]pyrindin-3-yl]-1,1-dioxo-1,4-dihydro-1λ^6-thieno[2,3-e][1,2,4]thiadiazin-7-ylmethyl}-methanesulfonamide] has an EC50 of 20 to 100 nM. COc1cc(CN2C(=O)C(C3=NS(=O)(=O)c4c(CNS(C)(=O)=O)csc4N3)=C(O)[C@@H]3CCC[C@@H]32)ccc1F [Example 114, (4aR,7aS)-N-{3-[1-(4-Fluoro-3-methoxy-benzyl)-4-hydroxy-2-oxo-2,4a,5,6,7,7a-hexahydro-1H-[1]pyrindin-3-yl]-1,1-dioxo-1,4-dihydro-1λ^6-thieno[2,3-e][1,2,4]thiadiazin-7-ylmethyl}-methanesulfonamide] showed an EC50 of 100 to 1000 nM. In the case of CS(=O)(=O)NCc1csc2c1S(=O)(=O)N=C(C1=C(O)[C@@H]3CCC[C@@H]3N(Cc3ccc(F)c(F)c3F)C1=O)N2 [Example 115, (4aR,7aS)-N-{3-[4-Hydroxy-2-oxo-1-(2,3,4-trifluoro-benzyl)-2,4a,5,6,7,7a-hexahydro-1H-[1]pyrindin-3-yl]-1,1-dioxo-1,4-dihydro-1λ^6-thieno[2,3-e][1,2,4]thiadiazin-7-ylmethyl}-methanesulfonamide], the EC50 is reported as 100 to 1000 nM. With CS(=O)(=O)NCc1csc2c1S(=O)(=O)N=C(C1=C(O)[C@@H]3CCC[C@@H]3N(Cc3ccccc3)C1=O)N2 [Example 124, (4aR,7aS)-N-[3-(1-Benzyl-4-hydroxy-2-oxo-2,4a,5,6,7,7a-hexahydro-1H-[1]pyrindin-3-yl)-1,1-dioxo-1,4-dihydro-1λ^6-thieno[2,3-e][1,2,4]thiadiazin-7-ylmethyl]-methanesulfonamide] the EC50 was 5 to 20 nM. Molecule CS(=O)(=O)NCc1csc2c1S(=O)(=O)N=C(C1=C(O)[C@@H]3CCC[C@@H]3N(Cc3ccc(F)c(F)c3)C1=O)N2 [Example 125, (4aR,7aS)-N-{3-[1-(3,4-Difluoro-benzyl)-4-hydroxy-2-oxo-2,4a,5,6,7,7a-hexahydro-1H-[1]pyrindin-3-yl]-1,1-dioxo-1,4-dihydro-1λ^6-thieno[2,3-e][1,2,4]thiadiazin-7-ylmethyl}-methanesulfonamide] has an EC50 of 20 to 100 nM. Work on Cc1cc(CN2C(=O)C(C3=NS(=O)(=O)c4c(CNS(C)(=O)=O)csc4N3)=C(O)[C@@H]3CCC[C@@H]32)ccc1F [Example 126, (4aR,7aS)-N-{3-[1-(4-Fluoro-3-methyl-benzyl)-4-hydroxy-2-oxo-2,4a,5,6,7,7a-hexahydro-1H-[1]pyrindin-3-yl]-1,1-dioxo-1,4-dihydro-1λ^6-thieno[2,3-e][1,2,4]thiadiazin-7-ylmethyl}-methanesulfonamide] yielded an EC50 of 20 to 100 nM. CS(=O)(=O)NCc1csc2c1S(=O)(=O)N=C(C1=C(O)[C@@H]3CCC[C@@H]3N(Cc3ccsc3)C1=O)N2 [Example 127, (4aR,7aS)-N-[3-(4-Hydroxy-2-oxo-1-thiophen-3-ylmethyl-2,4a,5,6,7,7a-hexahydro-1H-[1]pyrindin-3-yl)-1,1-dioxo-1,4-dihydro-1λ^6-thieno[2,3-e][1,2,4]thiadiazin-7-ylmethyl]-methanesulfonamide] gave an EC50 of 5 to 20 nM. For CC(C)CCN1C(=O)C(C2=NS(=O)(=O)c3c(CNS(C)(=O)=O)csc3N2)=C(O)[C@@H]2CCC[C@@H]21 [Example 128, (4aR,7aS)-N-{3-[4-Hydroxy-1-(3-methyl-butyl)-2-oxo-2,4a,5,6,7,7a-hexahydro-1H-[1]pyrindin-3-yl]-1,1-dioxo-1,4-dihydro-1λ^6-thieno[2,3-e][1,2,4]thiadiazin-7-ylmethyl}-methanesulfonamide], the EC50 was 20 to 100 nM. CC(C)(C)CCN1C(=O)C(C2=NS(=O)(=O)c3c(CNS(C)(=O)=O)csc3N2)=C(O)[C@@H]2CCC[C@@H]21 [Example 129, (4aR,7aS)-N-{3-[1-(3,3-Dimethyl-butyl)-4-hydroxy-2-oxo-2,4a,5,6,7,7a-hexahydro-1H-[1]pyrindin-3-yl]-1,1-dioxo-1,4-dihydro-1λ^6-thieno[2,3-e][1,2,4]thiadiazin-7-ylmethyl}-methanesulfonamide] gave an EC50 of 5 to 20 nM.
